In article PMC10764104, “Discovery of Molecular Glue Degraders via Isogenic Morphological Profiling” (ACS Chemical Biology, 2023):

Target: T1, GSPT2 G566N (Homo sapiens, UniProt Q8IYD1, G566N)
T1 construct: expressed in transfected cells; host or cells: RKO cells, lentiviral transduction, puromycin-selected
Assay: Western blot (HA-tag) of G-loop mutant GSPT2 in RKO cells
Type: cell-based
Conditions: RKO cells stably overexpressing HA-GSPT2 G566N, 16 h; 10 μM FL2-14 or 10 nM CC-885
Procedure: Figure 3 FL2-14 is a selective GSPT2 molecular glue degrader. (A) Structure of FL2-14 comprising fluorosulfate scaffold FL2 (black) and tail group modification 14 (blue). (B) DMSO-normalized quantitative proteomics after 16 h of treatment with FL2-14 (10 μM) in RKO WT (n = 2). […] (C) Structural alignment of AlphaFold models of GSPT1 (AF-P15170-F1-model_v4 in gray) and GSPT2 (AF-Q8IYD1-F1-model_v4 in blue). (D) Validation of GSPT2 degradation by FL2-14. […] (E) Dose–response of FL2-14 in RKO and HEK293T cells. Cells were treated with the FL2-14 (0 to 10 μM) for 16 h. (F) Degradation of GSPT2^WT or GSPT2^G566N.
Prediction of the G‐loop degron sequence in GSPT2
We first compiled all CRBN degron sequences with known crystal structures (Table S 2). We subsequently discarded 6UML as its degron sequence included an alanine instead of the typical glycine observed in the seventh amino acid residue of other degron sequences, leaving six degron sequences. We then scanned the latest AlphaFold structure of GSPT215 for a potential stretch of 10 amino acids that would align best with each degron sequence. We yielded the same stretch of amino acid residues from position 560 to 569 ([…]) and RMSD values under 0.5 Å.
Table S 2: List of crystal structures used for the computational prediction of the G‐loop degron sequence […]
PDB code Resolution (Å) Chain Segment Sequence Reference
Analysis of G‐loop mutation […]

T1 sequence (Q8IYD1 whole entry G566N): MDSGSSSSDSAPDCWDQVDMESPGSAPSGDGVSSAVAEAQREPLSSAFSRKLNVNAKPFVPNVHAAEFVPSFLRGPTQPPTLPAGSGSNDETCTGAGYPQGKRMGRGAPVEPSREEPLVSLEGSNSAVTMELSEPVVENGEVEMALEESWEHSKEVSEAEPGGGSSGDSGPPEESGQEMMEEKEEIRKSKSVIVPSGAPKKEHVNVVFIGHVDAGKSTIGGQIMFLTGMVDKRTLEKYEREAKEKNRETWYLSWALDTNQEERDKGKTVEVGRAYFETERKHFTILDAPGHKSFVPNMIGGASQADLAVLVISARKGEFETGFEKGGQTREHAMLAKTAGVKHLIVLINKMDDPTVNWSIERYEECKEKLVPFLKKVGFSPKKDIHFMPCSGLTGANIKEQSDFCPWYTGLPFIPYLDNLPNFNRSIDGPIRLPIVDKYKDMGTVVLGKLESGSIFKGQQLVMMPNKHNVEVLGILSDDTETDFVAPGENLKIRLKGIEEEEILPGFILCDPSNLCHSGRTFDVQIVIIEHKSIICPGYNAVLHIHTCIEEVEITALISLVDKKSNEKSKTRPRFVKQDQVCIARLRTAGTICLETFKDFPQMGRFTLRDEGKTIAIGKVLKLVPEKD

CN(Cc1ncc(C2CC2)o1)S(=O)(=O)Oc1ccc(Nc2ccc3c(c2)C(=O)N(C2CCC(=O)NC2=O)C3=O)cc1 (stereo not shown) [FL2-14]
degradation of HA-tagged GSPT2 G566N (glycine of G-loop replaced by asparagine): rescued degradation of GSPT2
